Data reported in patent publication US11066443B2 (Hoffmann-La Roche Inc., priority 2017, dated 2021).
pIC50: −log10 of the molar value.

Each compound was assayed on P. aeruginosa NCTC11454 (assay: Antimicrobial susceptibility testing: 50% growth inhibitory concentration (IC50) determination). Conditions: Pseudomonas aeruginosa, Iso-Sensitest broth, OD 600 nm every 20 minutes over 16h, growth inhibition during logarithmic growth.
Format: cell-based
Method: The in vitro antimicrobial activity of the compounds was alternatively determined according to the following procedure: The assay used a 10-points Iso-Sensitest broth medium to measure quantitatively the in vitro activity of the compounds against P. aeruginosa NCTC11454. Stock compounds in DMSO were serially twofold diluted (e.g. range from 50 to 0.097 μM final concentration) in 384 wells microtiter plates and inoculated with 49 μl the bacterial suspension in Iso-Sensitest medium to have a final cell concentration of ˜5×10^(5) CFU/ml in a final volume/well of 50 ul/well. Microtiter plates were incubated at 35±2° C. Bacterial cell growth was determined with the measurement of optical density at λ=600 nm each 20 minutes over a time course of 16h. Growth inhibition was calculated during the logarithmic growth of the bacterial cells with determination of the concentration inhibiting 50% (IC50) and 90% (IC90) of the growth. Table 2 provides the 50% growth inhibitory concentrations (IC50) in micromoles per liter of the compounds of present invention obtained against P. aeruginosa NCTC11454.

| Structure (SMILES) | pIC50 |
| --- | --- |
| Cc1[nH]c2ccccc2c1C[C@H]1C(=O)NCc2cc(-c3ccnc(Cl)c3)cc(Cl)c2Sc2ncccc2CN[C@@H](CCCN)C(=O)N[C@@H](CCCCN)C(=O)N1C [Example 44, (11S,14S,17S)-14-(4-Amino-butyl)-11-(3-amino-propyl)-25-chloro-23-(2-chloro-pyridin-4-yl)-16-methyl-17-(2-methyl-1H-indol-3-ylmethyl)-2-thia-4,10,13,16,19-pentaaza-tricyclo[19.4.0.0*3,8*]pentacosa-1(25),3(8),4,6,21,23-hexaene-12,15,18-trione] | 4.57 |
| CN1C(=O)[C@H](CCCCN)NC(=O)[C@H](CCCN)NCc2cccnc2Sc2c(Cl)cc(C#CCOCc3ccccc3)cc2CNC(=O)[C@@H]1Cc1c[nH]c2ccccc12 [Example 45, (11S,14S,17S)-14-(4-Amino-butyl)-11-(3-amino-propyl)-23-(3-benzyloxy-prop-1-ynyl)-25-chloro-17-(1H-indol-3-ylmethyl)-16-methyl-2-thia-4,10,13,16,19-pentaaza-tricyclo[19.4.0.0*3,8*]pentacosa-1(25),3(8),4,6,21,23-hexaene-12,15,18-trione] | 5.22 |
| CN1C(=O)[C@H](CCCCN)NC(=O)[C@H](CCCN)NCc2ccccc2Sc2nc(N3CCOCC3)ccc2CNC(=O)[C@@H]1Cc1c[nH]c2ccccc12 [Example 46] | 4.69 |
| Cc1[nH]c2ccccc2c1C[C@H]1C(=O)NCc2c(-c3ccncc3)ccc(Cl)c2Sc2ncccc2CN[C@@H](CCCN)C(=O)N[C@@H](CCCCN)C(=O)N1C [Example 47, (11S,14S,17S)-14-(4-Amino-butyl)-11-(3-amino-propyl)-25-chloro-16-methyl-17-(2-methyl-1H-indol-3-ylmethyl)-22-pyridin-4-yl-2-thia-4,10,13,16,19-pentaaza-tricyclo[19.4.0.0*3,8*]pentacosa-1(25),3(8),4,6,21,23-hexaene-12,15,18-trione] | 5.56 |
| CN1C(=O)[C@H](CCCCN)NC(=O)[C@H](CCCN)NCc2cc(Br)ccc2Sc2c(Cl)cccc2CNC(=O)[C@@H]1Cc1c[nH]c2ccccc12 [Example 48, (12S,15S,18S)-15-(4-Amino-butyl)-18-(3-amino-propyl)-23-bromo-4-chloro-12-(1H-indol-3-ylmethyl)-13-methyl-2-thia-10,13,16,19-tetraaza-tricyclo[19.4.0.0*3,8*]pentacosa-1(25),3,5,7,21,23-hexaene-11,14,17-trione] | 4.85 |
| CN1C(=O)[C@H](CCCCN)NC(=O)[C@H](CCCN)NCc2cc(-c3ccccc3)ccc2Sc2c(Cl)cccc2CNC(=O)[C@@H]1Cc1c[nH]c2ccccc12 [Example 49, (12S,15S,18S)-15-(4-Amino-butyl)-18-(3-amino-propyl)-4-chloro-12-(1H-indol-3-ylmethyl)-13-methyl-23-phenyl-2-thia-10,13,16,19-tetraaza-tricyclo[19.4.0.0*3,8*]pentacosa-1(25),3,5,7,21,23-hexaene-11,14,17-trione] | 4.97 |

Results, then the compound that gave them:

| pIC50 | Structure (SMILES) |
| --- | --- |
| 5.07 | CN1C(=O)[C@H](CCCCN)NC(=O)[C@H](CCCN)NCc2cc(-c3ccc(CN)cc3)ccc2Sc2c(Cl)cccc2CNC(=O)[C@@H]1Cc1c[nH]c2ccccc12 [Example 50, (12S,15S,18S)-15-(4-Amino-butyl)-23-(4-aminomethyl-phenyl)-18-(3-amino-propyl)-4-chloro-12-(1H-indol-3-ylmethyl)-13-methyl-2-thia-10,13,16,19-tetraaza-tricyclo[19.4.0.0*3,8*]pentacosa-1(25),3,5,7,21,23-hexaene-11,14,17-trione] |
| 4.91 | CN1C(=O)[C@H](CCCCN)NC(=O)[C@H](CCCN)NCc2ccc(Br)cc2Sc2c(Cl)cccc2CNC(=O)[C@@H]1Cc1c[nH]c2ccccc12 [Example 51, (12S,15S,18S)-15-(4-Amino-butyl)-18-(3-amino-propyl)-24-bromo-4-chloro-12-(1H-indol-3-ylmethyl)-13-methyl-2-thia-10,13,16,19-tetraaza-tricyclo[19.4.0.0*3,8*]pentacosa-1(25),3,5,7,21,23-hexaene-11,14,17-trione] |
